Assay results reported in patent publication US6727407B1, “NUCLEIC ACIDS ENCODING THE ARABIDOPSIS PROTEIN KINASE β-SUBUNIT CKB3 AND A METHOD OF ALTERING CIRCADIAN RHYTHMS AND FLOWERING IN A PLANT BY TRANFORMING WITH A NUCLEIC ACID ENCODING A PROTEIN KINASE β-SUBUNIT” (Regents of the University of California, priority 1998, dated 2004).
Values belong to the molecule of their own block, whether it stands above or below them.

How the values were obtained:
CK1 and CK2 = settings: cited from earlier work
[1] = system: major DNA-protein complex containing CCA1; experiment: EMSA: formation of the DNA-protein complex containing CCA1 in plant whole-cell extracts (A2 fragment of Lhcb1*3); assay type: biochemical, Arabidopsis; settings: WCE preincubated 45 min at 30° C.
Protocol: WCE were incubated in the absence (lane 1) or presence (lane 2) of λ protein phosphatase (200 units added to 200 μl) for 30 min at 30° C. […] WCE from wild type (WT) and a CCA1-ox line (CCA1-ox) (7) grown in 12:12 photoperiods were used in the EMSA. […] WCE were incubated with the indicated inhibitor for 45 min at 30° C. Lane 1, no inhibitors; lane 2, 5 mM 2,3-diphosphoglycerate (D.G.); lane 3, 100 μM quercetin. Arrows indicate the position of the major DNA-protein complex containing CCA1.
CCA1 was incubated with 0.1 ng of end-labeled A2 fragment of the Arabidopsis Lhcb 1*3 gene (56) in the presence of 0.5 μg of poly(dI-dC) at 25° C. for 15 min. WCE were incubated in preincubation buffer (50 mM Tris-HCl, pH 7.5, 2 mM MnCl2, 5 mM DTT, 0.1 mM EDTA, 0.01% Brij 35) at 30° C. for 45 min, then incubated with the A2 probe in the presence of 1 μg of poly(dI-dC). The EMSA buffer and electrophoresis conditions have been described (56). DNA-protein complexes were detected by autoradiography.
The A2 fragment used as a probe includes known binding sites for G-box and CAAT binding proteins (56). […] Further evidence that the marked complex contains CCA1 includes the observations (data not shown) that this complex is absent in extracts prepared from CCA1-null mutant plants and that addition of anti-CCA1 antibodies inhibits its formation. […]

[2] = system: CK2-like activity in Arabidopsis whole-cell extracts; experiment: In vitro kinase assay: phosphorylation of GST-CCA1 by Arabidopsis whole-cell extracts; assay type: biochemical; settings: 10 mM inhibitor, 160 μg WCE, [γ-32P]ATP, 30° C. 30 min
Protocol: (§1) GST (lanes 1 and 4) or GST-CCA1 (lanes 2, 3, 5-7) were incubated with 160 μg of WCE in the absence (lanes 1, 2, 4, and 5) or presence (lane 3) of 10 mM 2,3-diphosphoglycerate (D. G.), with recombinant CK2 (rCK2) in the absence (lane 6) or presence of 10 mM 2,3-diphosphoglycerate (lane 7) together with [γ-^32P]ATP (lanes 1-3, 6, and 7) or [γ-^32P]GTP (lanes 4 and 5). The arrow indicates the position of the full-length GST-CCA1 protein.
(§2) GST-CCA1 bound to glutathione-agarose beads was resuspended in 50 μl of CK2 buffer (50 mM Tris-HCl, pH 7.5, 10 mM MgCl2, 100 mM NaCl, 1 mM DTT. 0.1 mM ATP or GTP) in the presence of 5-10 μCi of [γ-^32P]ATP or GTP. The reaction was started by adding CK2 or whole-cell extracts (WCE) and incubating samples at 30° C. for 30 min. WCE were prepared as described previously (3) except that the phosphatase inhibitor cocktail (5 mM NH4VO3, 0.2 mM ammonium molybdate, 1 mM EGTA, 50 mM NaF) was added to extraction buffer. The beads were washed with phosphate-buffered saline (PBS) containing 1% Triton X-100 and resuspended in 1X SDS-PAGE sample buffer. The phosphorylated samples were separated by 10% SDS-PAGE. ^32P-labeled bands were detected by autoradiography and quantitated with a PhosphorImager.
(§3) We next examined whether plants contain a CK2-like protein kinase activity that can phosphorylate CCA1 in vitro. […]

recombinant CK2 = experiment: In vitro kinase assay: phosphorylation of GST-CCA1 by recombinant CK2; assay type: biochemical, Arabidopsis; settings: 10 mM inhibitor, recombinant CK2, [γ-32P]ATP
Protocol: as §1, §2, §3

Molecule: O=c1c(O)c(-c2ccc(O)c(O)c2)oc2cc(O)cc(O)c12 [quercetin]
kinase inhibition specificity (CK1 and CK2): specific to CK2 | formation of the DNA-protein complex containing CCA1 ([1]; 100 μM inhibitor): abolished

reduction of phosphorylation of CCA1 (recombinant CK2): 77%
Molecule: 2,3-diphosphoglycerate
kinase inhibition specificity (CK1 and CK2): inhibits both CK1 and CK2 | reduction of incorporation of ATP into GST-CCA1 [2]: 63% | formation of the DNA-protein complex containing CCA1 ([1]; 5 mM inhibitor): abolished
